The text below walks through data of US12448374B2, “Inhibitors of SARM1” (Disarm Therapeutics, Inc., priority 2018, dated 2025).

The structures appear in SMILES notation. Bounds are passed on as bounds.

One assay concerns the target T1, SARM1 SAM-TIR (Homo sapiens, UniProt Q6SZW1).
T1 construct: This assay makes use of a fragment of the SARM1 molecule encompassing the SAM and TIR domains; made in house; host or cells: NRK1-HEK293T cells (transient transfection; clarified sonicated lysate used without purification)
T1 sequence (Q6SZW1 409-724 limits assumed): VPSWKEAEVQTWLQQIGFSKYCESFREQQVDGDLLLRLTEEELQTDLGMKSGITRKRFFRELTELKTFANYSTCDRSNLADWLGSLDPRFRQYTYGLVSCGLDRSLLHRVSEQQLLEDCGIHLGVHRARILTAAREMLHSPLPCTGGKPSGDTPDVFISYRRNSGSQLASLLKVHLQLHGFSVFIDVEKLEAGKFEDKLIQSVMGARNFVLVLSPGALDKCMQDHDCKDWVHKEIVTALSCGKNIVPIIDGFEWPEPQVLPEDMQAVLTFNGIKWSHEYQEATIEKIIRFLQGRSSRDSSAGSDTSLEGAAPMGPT
The assay can be described thus: SAM-TIR SARM1 IC50 assay (NADase activity, NAD+ cleavage). The class given is biochemical. The conditions noted are these: SAM-TIR lysate 5 μg/mL, 2 h pre-incubation, 5 μM NAD+, RapidFire MS readout. The text has this:
This Example describes an assay of SAM-TIR NADase activity and use of this assay to measure the efficacy of compounds of Formula I to block SARM1 mediated NAD+ cleavage. This assay is optimized in such a way as to characterize the efficacy of the compounds in Formula I to inhibit SARM1 activity and to calculate an IC50 value for each compound. This assay makes use of a fragment of the SARM1 molecule encompassing the SAM and TIR domains.
NRK1-HEK293T cells refers to a cell line that has been stably e transfected with an FCIV expression vector that expresses human Nicotinamide Riboside Kinase 1 (NRK1), an enzyme that converts the NAD+ biosynthetic precursor nicotinamide riboside (NR) to NMN, the immediate precursor of NAD+. When provided with NR this cell line augments intracellular NAD+ levels and maintains cell viability, when expressing SARM1 SAM-TIR. FIG. 2 illustrates that a NRK1-HEK293T stable line with NR supplementation maintains higher NAD+ levels upon SARM1-TIR expression. Data was generated from three independent NAD+ measurements from three independent transfection experiments, and normalized to data from a non-transfected experiment run concurrently. Data are presented as mean±SEM; Error bars: SEM; ***P<0.001 two tailed student's t-test.
NRK1-HEK293T cells were seeded onto 150 cm^2 plates at 20×10^6 cells per plate. The next day, the cells were transfected with 15 μg FCIV-SST (SAM-TIR expression plasmid, SEQ ID NO: 1) using X-[…]™ 9 DNA Transfection Reagent (Roche product #06365787001).
The cultures were supplemented with 1 mM NR at time of transfection to minimize toxicity from SAM-TIR overexpression. Forty-eight hours after transfection, cells were harvested, pelleted by centrifugation at 1,000 rpm (Sorvall ST 16R centrifuge, Thermo Fisher), and washed once with cold PBS (0.01 M phosphate buffered saline NaCl 0.138 M; KCl 0.0027 M; pH 7.4). The cells were resuspended in PBS with protease inhibitors (cOmplete™ protease inhibitor cocktail, Roche product #11873580001) and cell lysates were prepared by sonication (Branson Sonifer 450, output=3, 20 episodes of stroke). The lysates were centrifuged (12,000×g for 10 min at 4° C.) to remove cell debris and the supernatants (containing SARM1 SAM-TIR protein) were stored at −80° C. for later use in the in vitro SARM1 SAM-TIR NADase assay (see below). Protein concentration was determined by the Bicinchoninic (BCA) method and used to normalize lysate concentrations.
The enzymatic assay was performed in a 384-well polypropylene plate in Dulbecco's PBS buffer in a final assay volume of 20 μL. SAM-TIR lysate with a final concentration of 5 μg/mL was pre-incubated with the respective compound at 1% DMSO final assay concentration over 2 h at room temperature. The reaction was initiated by addition of 5 μM final assay concentration of NAD+ as substrate. After a 2 hr room temperature incubation, the reaction was terminated with 40 μL of stop solution of 7.5% trichloroactetic acid in acetonitrile. The NAD+ and ADPR concentrations were analyzed by a RapidFire High Throughput Mass Spectrometry System (Agilent Technologies, Santa Clara, CA) using an API4000 triple quadrupole mass spectrometer (AB Sciex Framingham, MA).

Assay [1] concerns mouse dorsal root ganglion (DRG) neurons. The assay can be described thus: Axon degeneration assay in mouse DRG drop culture. Type of assay: cell-based. The conditions noted are these: DRG neuron, protection of axon fragmentation, axonal transection or chemotoxic stimuli. The protocol:
This Example illustrates an in vitro axon degeneration assay used to characterize compounds of Formula I. This assay is used to test the efficacy of the compounds of Formula I to prevent axonal degeneration in a mouse dorsal root ganglion (DRG) drop culture.
Mouse DRG Drop culture: Mouse dorsal root ganglion neurons (DRGs) were dissected out of E12.5 CD1 mice (50 ganglion per embryo) and incubated with 0.5% Trypsin solution containing 0.02% EDTA (Gibco) at 37° C. for 15 min. The cells were then triturated by gentle pipetting and washed 3 times with DRG growth medium (Neurobasal medium (Gibco) containing 2% B27 (Invitrogen), 100 ng/ml 2.5S NGF (Harland Bioproducts), 1 mM 5-fluoro-2′ deoxyuridine (Sigma), penicillin, and streptomycin). Cells were suspended in the DRG growth medium. DRG drop cultures were created by spotting 5000 cells/well into the center of each well of a 96-well tissue culture plate coated with poly-D-Lysine (0.1 mg/ml; Sigma) and laminin ([…]; Invitrogen). Cells were allowed to adhere to the plates in a humidified tissue culture incubator (5% CO2) for 15 min and then DRG growth medium was gently added ([…]).
Axon degeneration assay: Axonal degeneration was stimulated either by manual axonal transection using a scalpel blade, or chemotoxic stimuli. After an appropriate experimental time period, the DRG cultures were fixed in 1% PFA plus sucrose and kept in the fridge prior to imaging. Bright-field images of DRG axons and cell bodies were collected using the 20× water immersion lens of a Phenix automated confocal microscope (PerkinElmer) and quantitation of axonal performed using in-house developed scripts (Acapella, PerkinElmer).

Usually IC50 stands for the midpoint of a concentration-inhibition curve. Higher therefore signals lower potency. `Brc1cccc2nncn12` [Example 3]: on SARM1 SAM-TIR, the half-maximal inhibitory concentration (IC50) was above 50 µM. As to `Ic1c[nH]c2cnccc12` [Example 4], the IC50 (in assay [1]; against SARM1 SAM-TIR) was below 10 µM throughout. In turn, `Brc1cccc2[nH]ncc12` [Example 5] had a half-maximal inhibitory concentration (IC50) against SARM1 SAM-TIR of 10 to 30 µM. Still for that read-out and setting: for `Clc1nccc2c(Br)c[nH]c12` [Example 6] the value was below 10 µM.

For the molecule `Brc1c[nH]c2cnccc12` [Example 7], the IC50 (in assay [1]; at SARM1 SAM-TIR) was below 10 µM in each case. On to `Clc1c[nH]c2cnccc12` [Example 9], for which the IC50 against SARM1 SAM-TIR was below 10 µM. Take `COCCCn1cc(Br)c2ccncc21` [Example 10]: at SARM1 SAM-TIR, the IC50 is above 50 µM. Still for that read-out and setting: for `NC(=O)Cn1cc(Br)c2ccncc21` [Example 11] the value was above 50 µM. As to `COCCn1cc(Br)c2ccncc21` [Example 12], the IC50 against SARM1 SAM-TIR fell in the range of 30 to 50 µM.

For `CC(C)n1cc(Br)c2ccncc21` [Example 13], on SARM1 SAM-TIR, the IC50 fell in the range of 30 to 50 µM. On the same count and under the same terms, for `CCn1cc(I)c2ccncc21` [Example 14] the value was below 10 µM. At SARM1 SAM-TIR, `Cn1cc(I)c2ccncc21` [Example 15] had an IC50 below 10 µM. For `Cn1cc(Br)c2ccncc21` [Example 16], at SARM1 SAM-TIR, the IC50 is below 10 µM. As to `Oc1nnc2cnccn12` [Example 27], on SARM1 SAM-TIR, the IC50 was above 50 µM. Same read-out and setting: then `Cn1cnc2cnccc21` [Example 28], with below 10 µM. On the same count and under the same terms, then `Cc1ccc2nc[nH]c2c1Br` [Example 29], with 30 to 50 µM.

For the molecule `Brc1csc2cnccc12` [Example 30], the IC50 in assay [1] was 10 to 30 µM; against SARM1 SAM-TIR, below 10 µM. Take `Brc1n[nH]c2cnccc12` [Example 31]: the IC50 on SARM1 SAM-TIR fell in the range of 10 to 30 µM.

The molecule `Brc1cncc2[nH]ncc12` [Example 32] returned a 50% inhibitory concentration (IC50) on SARM1 SAM-TIR below 10 µM. For `c1cc2ccsc2cn1` [Example 33], the IC50 on SARM1 SAM-TIR is below 10 µM. `N#Cc1cc2ccncc2[nH]1` [Example 37] registered an IC50 on SARM1 SAM-TIR above 50 µM.

Take `CCOC(=O)c1[nH]c2cnccc2c1Br` [Example 38]: the IC50 on SARM1 SAM-TIR was above 50 µM.

`O=S1(=O)C=C(Br)c2ccncc21` [Example 40] yielded a half-inhibitory concentration (IC50) at SARM1 SAM-TIR of 30 to 50 µM. On the same count and under the same terms, for `Ic1csc2cnncc12` [Example 41] the value was below 10 µM; for `Ic1c[nH]c2nnccc12` [Example 42], above 50 µM. Still for that read-out and setting: then `Brc1csc2cnncc12` [Example 43], with below 10 µM; and `Brc1c[nH]c2nnccc12` [Example 44], with above 50 µM.
